Results published in US11135209B2, “Compositions and methods for inhibiting protein kinases” (UNIVERSITY OF HOUSTON SYSTEM, priority 2017, dated 2021).

Tests used:
[1] = molecular target: T1, human ALK2 (Homo sapiens, UniProt Q04771); assay: Activin-Like Kinase 2 (ALK2) enzyme assay; type: biochemical
T1 sequence (Q04771 21-509): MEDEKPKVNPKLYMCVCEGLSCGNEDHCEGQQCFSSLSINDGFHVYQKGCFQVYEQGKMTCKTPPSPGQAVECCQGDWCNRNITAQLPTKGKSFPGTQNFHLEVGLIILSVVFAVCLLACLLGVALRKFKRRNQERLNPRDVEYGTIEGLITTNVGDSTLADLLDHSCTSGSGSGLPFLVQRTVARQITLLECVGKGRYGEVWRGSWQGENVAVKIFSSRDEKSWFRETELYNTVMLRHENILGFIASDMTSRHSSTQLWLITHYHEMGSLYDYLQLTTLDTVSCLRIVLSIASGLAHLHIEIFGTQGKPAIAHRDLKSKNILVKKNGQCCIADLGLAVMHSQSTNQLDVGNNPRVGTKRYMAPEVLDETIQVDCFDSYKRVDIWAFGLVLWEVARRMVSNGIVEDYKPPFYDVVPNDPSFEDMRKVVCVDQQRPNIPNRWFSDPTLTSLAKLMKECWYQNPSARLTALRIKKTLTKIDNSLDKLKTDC
Procedure: Activin-Like Kinase 2 (ALK2) Enzyme Assay
Enzyme inhibitory activity was evaluated in a standard kinase enzyme assay by incubating human ALK2 with the protein substrate casein (1 mg/mL) and γ-^33ATP (10 μM) in the presence of various concentrations of test compounds (10 nM-100 μM). After 30 min the amount of ^33P-casein was determined.

[2] = test system: NOD2 cellular signaling in HEK-Blue cells expressing human NOD2; assay: NOD2 cell signaling assay (HEK-Blue, NFkB-SEAP reporter, L18-MDP stimulated); type: cell-based; conditions: read-out: IC50 (nM) HEKBlue RIPK2
Procedure: NOD2 Cell Signaling Assay.
HEK-Blue cells expressing human NOD2 and NFkB-SAEP reporter (Invivogen) are seeded into 96 well clear plates at 7.5×10^3 cells per well in 100 μL of DMEM media supplemented with 10% FBS and 1% antibiotic-antimycotic mix. Cells are allowed to attach for 48 h in 5% CO2 tissue culture incubator at 37° C. On the morning of the experiment, media in the wells is replaced with 100 pt of HEK-Blue detection media (Invivogen). Cells are treated with the inhibitors, diluted in DMSO (0.5 μL per well) for 15 min in 5% CO2 tissue culture incubator at 37° C. After that, cells are stimulated by the addition of 1 ng/well L18-MDP (Invivogen). Cells are incubated in 5% CO2 tissue culture incubator at 37° C. for 8 h and absorbance, corresponding to the SEAP in the media, is determined in Wallac3V plate reader (Perkin Elmer). Inhibition, %=(1−((sample signal-unstimulated and DMSO treated cells)/(L18-MDP stimulated and DMSO treated cells−unstimulated and DMSO treated cells)))*100. IC50 values are calculated based on a dose range of inhibitor concentrations using non-linear regression in GraphPad Prism software.

[3] = molecular target: Recombinant RIPK2 protein (Homo sapiens, UniProt O43353); assay: Receptor Interacting Protein Kinase 2 (RIPK2) enzyme assay (ADP-Glo); type: biochemical; conditions: for inhibition at 0.5 µM: Conc. 500 nM
Procedure: Receptor Interacting Protein Kinase 2 (RIPK2) Enzyme Assay
Recombinant RIPK2 protein (20 ng per reaction) is diluted in the reaction buffer consisting of 40 mM Tris (pH 7.5); 20 mM MgCl2; 0.1 mg/ml BSA; 50 μM DTT. Diluted protein is added to low volume white 384 well plates (2 μL/well). Inhibitors are diluted in reaction buffer (final 25% DMSO), 1 μL is added to each well and incubated 5 min at room temperature. Reactions are initiated by the addition of 2 μL of 100 μM ATP and 1 mg/ml RS repeat peptide (SignalChem) in the reaction buffer. Plates are sealed with plastic coverslips and incubated at room temperature for 2 h. Reactions are stopped by the addition of 5 μL of ADP-Glo reagent (Promega) and ADP generation reaction is performed for 40 min at room temperature. Luminescence signal is generated by the addition of 10 μL of Kinase detection reagent (Promega) for 30 min at room temperature Luminescence signals are determined using appropriate luminescence plate-reader (typical integration time 0.3-1 sec). To calculate percent inhibition, average background signal is subtracted from test well and maximal signal wells. Inhibition, %=(1−(test signal/maximal signal))*100. The percent inhibition at a specified concentration is determined or IC50 values are calculated based on a dose range of inhibitor concentrations using non-linear regression in GraphPad Prism software.

Chain of Recombinant RIPK2 protein (O43353 whole entry, species assumed): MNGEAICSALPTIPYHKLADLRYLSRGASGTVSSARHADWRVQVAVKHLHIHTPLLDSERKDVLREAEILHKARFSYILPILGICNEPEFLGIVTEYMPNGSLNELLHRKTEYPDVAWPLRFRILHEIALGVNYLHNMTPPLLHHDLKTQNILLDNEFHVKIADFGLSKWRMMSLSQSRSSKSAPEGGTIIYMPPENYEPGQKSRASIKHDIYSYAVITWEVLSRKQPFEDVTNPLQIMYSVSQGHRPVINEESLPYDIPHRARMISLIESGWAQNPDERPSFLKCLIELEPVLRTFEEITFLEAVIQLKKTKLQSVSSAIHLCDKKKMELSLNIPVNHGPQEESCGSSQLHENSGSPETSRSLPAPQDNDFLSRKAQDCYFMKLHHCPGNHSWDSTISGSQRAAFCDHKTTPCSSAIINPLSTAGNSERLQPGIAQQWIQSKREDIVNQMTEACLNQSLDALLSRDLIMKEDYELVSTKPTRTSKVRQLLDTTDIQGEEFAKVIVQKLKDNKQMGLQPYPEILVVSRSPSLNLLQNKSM

| SMILES | IC50 [1] [nM] | IC50 [2] [nM] | IC50 [3] [nM] | inhibition at 0.5 µM [3] [%] | inhibition at 0.25 µM ([3]; Conc. 250 nM) [%] |
| --- | --- | --- | --- | --- | --- |
| COc1cc(NS(=O)(=O)CC(C)C)cc(-c2cc(-c3ccc(N4CCNCC4)cc3)cnc2C)c1 [CSLP17, N-(3-Methoxy-5-(2-methyl-5-(4-(piperazin-1-yl)phenyl)pyridin-3-yl)phenyl)-2-methylpropane-1-sulfonamide] | > 10 | > 1000 | > 10 | 86 | – |
| COc1cc(-c2cc(-c3ccc(N4CCNCC4)cc3)cnc2N)cc(NS(=O)(=O)C(C)C)c1C [CSLP25, N-(5-(2-Amino-5-(4-(piperazin-1-yl)phenyl)pyridin-3-yl)-3-methoxy-2-methylphenyl)propane-2-sulfonamide] | > 1000 | > 1000 | > 1000 | – | – |
| CCCS(=O)(=O)Nc1cc(-c2cc(-c3ccc(N4CCNCC4)cc3)cnc2N)ccc1OC [CSLP18] | > 1000 | > 100 | > 10 | – | – |
| CCCS(=O)(=O)Nc1cc(-c2cc(-c3cccc(S(C)(=O)=O)c3)cnc2N)ccc1OC [CSLP30] | > 10000 | > 1000 | > 100 | – | – |
| CCS(=O)(=O)Nc1cc(OC)cc(-c2cc(-c3ccc(N4CCNCC4)cc3)cnc2C)c1 [CSLP15, N-(3-Methoxy-5-(2-methyl-5-(4-(piperazin-1-yl)phenyl)pyridin-3-yl)phenyl)ethanesulfonamide] | > 10 | > 1000 | > 100 | 73 | – |
| CCCS(=O)(=O)Nc1cc(-c2cc(-c3ccc(N4CCNCC4)cc3)cnc2N)ccc1O [CSLP48, N-(5-(2-Amino-5-(4-(piperazin-1-yl)phenyl)pyridin-3-yl)-2-hydroxyphenyl)propane-1-sulfonamide] | > 100 | > 1000 | > 10 | – | – |
| CCOc1cc(-c2cc(-c3ccc(N4CCNCC4)cc3)cnc2N)cc(NS(=O)(=O)Cc2ccccc2)c1C [CSLP54, N-(5-(2-Amino-5-(4-(piperazin-1-yl)phenyl)pyridin-3-yl)-3-ethoxy-2-methylphenyl)-1-phenylmethanesulfonamide] | > 1000 | > 1000 | > 1000 | – | – |
| COc1cc(NS(=O)(=O)c2ccccc2)cc(-c2cc(-c3ccc(N4CCNCC4)cc3)cnc2N)c1 [CSLP20, N-(3-(2-Amino-5-(4-(piperazin-1-yl)phenyl)pyridin-3-yl)-5-methoxyphenyl)benzenesulfonamide] | > 1 | > 10 | > 1 | – | – |
| COc1cc(-c2cc(-c3ccc(N4CCNCC4)cc3)cnc2N)cc(NS(=O)(=O)Cc2ccccc2)c1C [CSLP31, N-(5-(2-Amino-5-(4-(piperazin-1-yl)phenyl)pyridin-3-yl)-3-methoxy-2-methylphenyl)-1-phenylmethanesulfonamide] | > 10 | > 100 | > 1000 | – | – |
| CCOc1cc(NS(=O)(=O)C(C)C)cc(-c2cc(-c3ccc(N4CCNCC4)cc3)cnc2N)c1 [CSLP22, N-(3-(2-Amino-5-(4-(piperazin-1-yl)phenyl)pyridin-3-yl)-5-ethoxyphenyl)propane-2-sulfonamide] | > 100 | > 10 | > 10 | – | – |
| COc1cc(NS(C)(=O)=O)cc(-c2cc(-c3ccc(N4CCNCC4)cc3)cnc2C)c1 [CSLP2, N-(3-Methoxy-5-(2-methyl-5-(4-(piperazin-1-yl)phenyl)pyridin-3-yl)phenyl)methanesulfonamide] | > 10 | > 1000 | > 100 | – | 39 |
| CCCS(=O)(=O)Nc1cc(-c2cc(-c3ccccc3S(C)(=O)=O)cnc2N)ccc1OC [CSLP33, N-(5-(2-Amino-5-(2-(methylsulfonyl)phenyl)pyridin-3-yl)-2-methoxyphenyl)propane-1-sulfonamide] | > 100000 | > 1000 | > 1000 | – | – |
| CCCS(=O)(=O)Nc1cc(-c2cc(-c3ccc(S(C)(=O)=O)cc3)cnc2N)ccc1OC [CSLP34] | > 10000 | > 1000 | > 100 | – | – |
